Test results taken from the supplement of paper PMC10307832.

Columns and labels:
Experiment in all cases: relative viability (nuclei count vs DMSO), 5 days (fraction); higher = more cells survive
[1] = compound: C1COCCN1CC2=CC(=O)C(=CO2)OCCCCCSC3=C4C=CC(=CC4=NC=C3)C(F)(F)F [EHT 1864] + CC1(C)CCC(c2ccc(Cl)cc2)=C(CN2CCN(c3ccc(C(=O)NS(=O)(=O)c4ccc(N[C@H](CCN5CCOCC5)CSc5ccccc5)c(S(=O)(=O)C(F)(F)F)c4)cc3)CC2)C1 [Navitoclax] (partner 0.5 µM)
Outline: (§1)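 A single step with final 0.05% Triton X-100, 1% formaldehyde and 1 ug/ml Hoechst fixed the cells and stained nuclei 5 days after treatment. Lung cancer cell lines in 1536-well plates had been treated by pin tool the day after seeding with one drug alone or a fixed anchor-drug dose plus five library-drug doses (not always all listed) in √10 steps, and nuclei were counted on 4× images. Relative viability is the ratio of nuclei in treated wells to nuclei in vehicle wells, taken as the median of duplicate plates.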

[2] = compound: C1COCCN1CC2=CC(=O)C(=CO2)OCCCCCSC3=C4C=CC(=CC4=NC=C3)C(F)(F)F [EHT 1864] + C[C@@H](Oc1cc(-c2cnn(C3CCNCC3)c2)cnc1N)c1c(Cl)ccc(F)c1Cl [Crizotinib] (partner 1 µM)
Outline: as §1

[3] = compound: C1COCCN1CC2=CC(=O)C(=CO2)OCCCCCSC3=C4C=CC(=CC4=NC=C3)C(F)(F)F [EHT 1864] + Cc1nc(Nc2ncc(C(=O)Nc3c(C)cccc3Cl)s2)cc(N2CCN(CCO)CC2)n1 [Dasatinib] (partner 0.075 µM)
Outline: as §1

[4] = compound: C1COCCN1CC2=CC(=O)C(=CO2)OCCCCCSC3=C4C=CC(=CC4=NC=C3)C(F)(F)F [EHT 1864] + O=C(CCCCCCC(=O)Nc1ccccc1)NO [Vorinostat] (partner 1 µM)
Outline: as §1

Cell Line	relative viability ([1]; first compound 0.04 µM)	relative viability ([1]; first compound 0.1265 µM)	relative viability ([1]; first compound 0.4 µM)	relative viability ([1]; first compound 1.265 µM)	relative viability ([1]; first compound 4 µM)	relative viability ([2]; first compound 0.04 µM)	relative viability ([2]; first compound 0.1265 µM)	relative viability ([2]; first compound 0.4 µM)	relative viability ([2]; first compound 1.265 µM)	relative viability ([2]; first compound 4 µM)	relative viability ([3]; first compound 0.04 µM)	relative viability ([3]; first compound 0.1265 µM)	relative viability ([3]; first compound 0.4 µM)	relative viability ([3]; first compound 1.265 µM)	relative viability ([3]; first compound 4 µM)	relative viability ([4]; first compound 0.04 µM)	relative viability ([4]; first compound 0.1265 µM)	relative viability ([4]; first compound 0.4 µM)	relative viability ([4]; first compound 1.265 µM)	relative viability ([4]; first compound 4 µM)
NCI-H838	1.08	1.04	1.14	1.08	1.14	0.74	0.724	0.911	0.826	0.802	0.207	0.252	0.304	0.277	0.269	0.713	0.668	0.74	0.723	0.727
NCI-H1437	1.06	1.03	0.967	0.819	0.671	0.87	0.918	0.845	0.838	0.642	0.453	0.387	0.342	0.235	0.248	0.84	0.866	0.757	0.542	0.479
NCI-H441	0.542	0.536	0.513	0.611	0.233	0.783	0.591	0.752	0.879	0.723	0.562	0.532	0.557	0.649	0.603	0.975		0.713	0.75	0.735
SK-LU-1	0.867	0.768	0.824	1.01	0.744	0.982	0.865	0.927	0.911	0.737	0.186	0.171	0.174	0.174	0.164	0.81	0.726	0.725	0.707	0.679
BEN	0.0831	0.0599	0.0547	0.075	0.238	0.979	0.775	0.753	0.885	0.964	0.384	0.279	0.377	0.308	0.36	0.528	0.579	0.636	0.648	0.57
LC-2-ad	0.49		0.49	0.382	0.39	0.493	0.454	0.432	0.526	0.564	0.65		0.617	0.54	0.659	0.659	0.432	0.677	0.648	0.625
COR-L23	1.01	0.901	1.01	0.979	0.932	0.684	0.559	0.59	0.552	0.596	0.492	0.396	0.467	0.485	0.439	0.476	0.333	0.476	0.435	0.433
NCI-H1650	1.12	0.783	1.14	1.4	1.18	0.857	0.653	0.947	0.911	1.15			0.36	0.271	0.377	0.529	0.54	0.592	0.623	0.521
RERF-LC-KJ	0.985	0.829	0.823	0.931	0.888	0.794	0.816	0.769	0.784	0.787	0.825	0.793	0.795	0.772	0.682	0.676	0.585	0.69	0.735	0.718
NCI-H1915	0.797		0.764	0.768	0.792	0.86		0.922	0.87	0.887	0.309		0.296	0.338	0.282	0.501		0.517	0.478	0.564
NCI-H596	1.1	0.892	1.08	0.812	0.888	1.02	1.04	0.931	0.896	0.973	0.701	0.592	0.533	0.554	0.664	0.724	0.476	0.694	0.577	0.657
NCI-H2009	1.16	1.15	1.14	1.11	0.879	0.978	1.01	1.08	0.962	0.711	0.259	0.258	0.323	0.241	0.251	0.69	0.698	0.72	0.627	0.612
NCI-H2126	0.92	0.76	0.823	0.853	0.814	1.01	0.938	0.998	0.992	0.988	0.604	0.574	0.649	0.484	0.545	0.836	0.711	0.735	0.795	0.681
LXF-289	0.952	0.837	0.885	0.811	0.939	0.802	0.791	0.752	0.706	0.688	0.237	0.239	0.253	0.171	0.207	0.773	0.697	0.712	0.735	0.734
PC-14	1.06	0.957	0.952	1.02	1.06	0.966	0.962	0.832	0.865	0.899	0.257	0.276	0.279	0.26	0.195	0.791	0.572	0.686	0.743	0.751
HOP-62	0.915		1.02	0.977	1.22	0.944		0.952	0.784	0.996	0.561		0.74	0.589	0.84	0.631		0.616	0.676	0.667
SK-MES-1	1.3	1.13	1.29	1.31	1.17	1	0.972	1.04	0.968	0.996	0.427	0.409	0.44	0.423	0.333	1.1	0.983	1.1	1.1	1.03

Cell Line	relative viability ([1]; first compound 0.04 µM)	relative viability ([1]; first compound 0.1265 µM)	relative viability ([1]; first compound 0.4 µM)	relative viability ([1]; first compound 1.265 µM)	relative viability ([1]; first compound 4 µM)	relative viability ([2]; first compound 0.04 µM)	relative viability ([2]; first compound 0.1265 µM)	relative viability ([2]; first compound 0.4 µM)	relative viability ([2]; first compound 1.265 µM)	relative viability ([2]; first compound 4 µM)	relative viability ([3]; first compound 0.04 µM)	relative viability ([3]; first compound 0.1265 µM)	relative viability ([3]; first compound 0.4 µM)	relative viability ([3]; first compound 1.265 µM)	relative viability ([3]; first compound 4 µM)	relative viability ([4]; first compound 0.04 µM)	relative viability ([4]; first compound 0.1265 µM)	relative viability ([4]; first compound 0.4 µM)	relative viability ([4]; first compound 1.265 µM)	relative viability ([4]; first compound 4 µM)
NCI-H1666	0.881	0.834	0.957	0.965	0.92	0.771	0.867	1.2	0.965	1.01	0.86	0.805	0.746	0.745	0.795	1.02	0.987	0.899	0.986	1.05
NCI-H1355	1.04	0.843	0.907	0.904	0.838	1.12	0.875	1.06	1.07	1.03	0.676	0.535	0.73	0.561	0.725	0.659	0.548	0.633	0.619	0.696
HCC-827	1.1	0.844	0.96	1.02	0.944	0.963	0.759	0.931	0.844	0.921	0.358	0.328	0.268	0.248	0.269	0.932	0.59	0.843	0.96	0.602
HARA	1.11	1.15	1.1	1.19	0.996	0.964	1	1.08	1.04	0.902	0.236	0.246	0.207	0.19	0.255	0.514	0.366	0.715	0.582	0.229
HCC-366	1.14		1.01	0.995	1.14	0.434		0.423	0.554	0.487	0.609	0.602	0.638	0.596	0.771	0.336	0.0895	0.312	0.327	0.337
NCI-H322M	1.13	1.26	1.13	1.29	1.23	0.927	0.837	0.849	0.995	1.05	0.256	0.24	0.283	0.23	0.234	0.856	0.921	0.863	0.807	0.789
NCI-H2347	0.77	0.708	0.812	0.714	0.828	0.693	0.518	0.715	0.709	0.868	0.358	0.251	0.308		0.332	0.544	0.396	0.506	0.65	0.739
NCI-H1975	1.14	1.19	1.17	0.928	0.875	0.967	0.987	0.946	0.851	0.84	0.361	0.292	0.426		0.331	0.726	0.673	0.677	0.654	0.644
UMC-11	0.345	0.294	0.27	0.304	0.322	0.611	0.537	0.568	0.607	0.507	0.462	0.449		0.441	0.458	0.372	0.482	0.41	0.398	0.534
A-427	1.15	0.941	0.823	0.911	0.884	0.949	0.945	0.817	0.8	0.811	0.643	0.655	0.613	0.705	0.623	0.928	0.819	0.885	0.879	0.801
LCLC-97TM1	0.414		0.342	0.339	0.503	0.399		0.42	0.442	0.285	0.888	0.748	0.828	0.727	0.8	0.848	0.509	0.813	0.613	0.74
HCC-15	0.732	0.576	0.682	0.649	0.736	0.752	0.635	0.801	0.82	0.821	0.56		0.623	0.618	0.543	0.77		0.838	0.81	0.929
NCI-H647	0.981	0.837	1.17	1.12	1.05	1	0.922	0.903	0.992	0.911	0.193	0.121	0.168	0.179	0.204	0.612	0.455	0.512	0.762	0.485
SW 1573	0.999	0.978	1.01	0.958	0.725	0.827	0.74	0.803	0.813	0.856	0.516	0.362	0.445	0.538	0.516	0.922		0.674	1.07	0.671
NCI-H1651	1.03	0.947	1.1	1	0.91	0.865	0.798	0.826	0.801	0.843	0.407	0.425	0.332	0.37	0.471	0.55	0.541	0.554	0.561	0.599
NCI-H2023	0.964	0.978	0.874	0.939	0.841	0.675	0.714	0.632	0.666	0.617	0.568	0.628	0.508	0.517	0.577	0.692	0.381	0.591	0.699	0.784
